Measurements: US8785488B2 (Exelixis Patent Company LLC, priority 2009, dated 2014)
pEC50: −log10 of the molar value.

What was measured:
human TGR5 (h-TGR5) = molecular target: T1, human TGR5 (h-TGR5) (Homo sapiens, UniProt Q8TDU6); assay: TGR5/CRE-Luciferiase Assay (HEK 293 hTGR5/CRE-Luc cells); format: cell-based; conditions: h-TGR5 CRE-Luc EC50, Table 1; read-out: CRE-Luc (EC50)
T1 construct: expressed in transfected cells
T1 sequence (Q8TDU6 1-330): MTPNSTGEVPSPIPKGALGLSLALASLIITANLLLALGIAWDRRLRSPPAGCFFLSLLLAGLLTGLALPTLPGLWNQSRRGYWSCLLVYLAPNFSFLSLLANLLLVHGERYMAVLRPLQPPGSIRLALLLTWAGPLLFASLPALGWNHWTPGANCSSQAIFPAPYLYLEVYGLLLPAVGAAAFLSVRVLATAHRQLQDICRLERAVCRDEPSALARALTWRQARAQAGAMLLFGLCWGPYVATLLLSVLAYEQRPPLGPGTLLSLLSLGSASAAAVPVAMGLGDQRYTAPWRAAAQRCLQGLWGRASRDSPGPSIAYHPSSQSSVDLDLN
Procedure, shortened: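 HEK293 cells stably carrying hTGR5 and a CRE-luciferase reporter were exposed to serially diluted compounds (diluted in DMEM with 5% DMSO) for 6 h. Cells were then lysed in luciferase buffer, luminescence was read, and EC50 values were derived from dose-response curves.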

h-TGR5 = molecular target: T2, h-TGR5 (Homo sapiens, UniProt Q8TDU6); assay: TGR5 cAMP Assay using Cisbio cAMP Dynamic2 htrf kit (hTGR5CRE-luc HEK 293 cells); format: cell-based; conditions: h-TGR5 cAMP EC50, Table 1; read-out: cAMP (EC50)
T2 construct: expressed in transfected cells
T2 sequence (Q8TDU6 1-330): T1 sequence (Q8TDU6 1-330)
Experimental: Compounds were diluted in DPBS with 5% DMSO (8-point serial dilution by half logs) in a 96-well plate and 1 μL was transferred to a 384-well assay plate in quadruplicate. The d2-cAMP and anti-cAMP Ab-cryptate stock solution were prepared as per the instructions in the Cisbio™ (Bedford, Mass.) kit. […] Cells were adjusted to 0.44×10^6 cells/ml followed by addition of IBMX to a final concentration of 0.5 mM. The cells were then mixed with d2-cAMP solution (7.1 mL cells+100 ul d2-cAMP) and 4000 cells (9 μL) were transferred to each well of the 384-well assay plate. Cells without d2-cAMP were added to eight wells as a negative control. The plate was covered and incubated at room temp for 30 min. Then 10 μL of Ab-cryptate solution was added to each well of the assay plate and incubated for 1 hr. The plate was read on an EnVision™ plate reader (Perkin-Elmer, Waltham, Mass.) and the DeltaF value was calculated as per the instructions in the Cisbio™ kit.
In the following tables, EC50 values determined according to the TGR5 cAMP Assay described herein (cAMP); EC50 values determined according to the TGR5/CRE-Luciferiase Assay described herein (CRE-Luc). […] The following compounds in Tables 1 and 2 were made by using procedures described in the above Schemes and Examples, and, where applicable, by making any necessary substitutions of known materials that one skilled in the art would ordinarily understand how to do.

| pEC50 (human TGR5 (h-TGR5)) | pEC50 (h-TGR5) | Structure (SMILES) |
| --- | --- | --- |
| > 7.00 | > 7.00 | COc1cc(C(C)(C)c2cnc(SCc3c(F)cc(CCCNC(=N)N)cc3F)n2-c2ccc(F)cc2)ccc1Cl [1-{3-[4-({[5-{1-[4-chloro-3-(methyloxy)phenyl]-1-methylethyl}-1-(4-fluorophenyl)-1H-imidazol-2-yl]thio}methyl)-3,5-difluorophenyl]propyl}guanidine] |
| > 7.00 | > 7.00 | COc1cc(C(C)(C)c2cnc(SCc3c(F)cc(CCCCNC(=N)N)cc3F)n2-c2ccc(F)cc2)ccc1Cl [1-{4-[4-({[5-{1-[4-chloro-3-(methyloxy)phenyl]-1-methylethyl}-1-(4-fluorophenyl)-1H-imidazol-2-yl]thio}methyl)-3,5-difluorophenyl]butyl}guanidine] |
| > 7.00 | > 7.00 | COc1cc(C(C)(C)c2cnc(SCc3c(F)cc(CCCCCNC(=N)N)cc3F)n2-c2ccc(F)cc2)ccc1Cl [1-{5-[4-({[5-{1-[4-chloro-3-(methyloxy)pheny1]-1-methylethyl}-1-(4-fluorophenyl)-1H-imidazol-2-yl]thio}methyl)-3,5-difluorophenyl]pentyl}guanidine] |
| > 7.00 | 6.00 to 7.00 | CC(C)(c1ccc(Cl)c(Cl)c1)c1cnc(SCc2cc(S(N)(=O)=O)c(Cl)cc2Cl)n1-c1ccc(F)cc1 [2,4-dichloro-5-[({5-[1-(3,4-dichlorophenyl)-1-methylethyl]-1-(4-fluorophenyl)-1H-imidazol-2-yl}thio)methyl]benzenesulfonamide] |
| > 7.00 | > 7.00 | COc1cc(C(C)(C)c2cnc(SCc3ccc(C#CCNC(=N)N)c(C(=O)O)c3)n2-c2ccc(F)cc2)ccc1Cl [2-(3-{[amino(imino)methyl]amino}prop-1-yn-1-yl)-5-({[5-{1-[4-chloro-3-(methyloxy)phenyl]-1-methylethyl}-1-(4-fluorophenyl)-1H-imidazol-2-yl]thio}methyl)benzoic acid] |
| 6.00 to 7.00 | 6.00 to 7.00 | COc1cc(-n2c(C(C)(C)c3ccc(Cl)c(Cl)c3)cnc2SCc2ccc(C#CCNC(=N)N)c(C(=O)O)c2)ccc1F [2-(3-{[amino(imino)methyl]amino}prop-1-yn-1-yl)-5-[({5-[1-(3,4-dichlorophenyl)-1-methylethyl]-1-[4-fluoro-3-(methyloxy)phenyl]-1H-imidazol-2-yl}thio)methyl]benzoic acid] |
| > 7.00 | 6.00 to 7.00 | COc1cc(C(C)(C)c2cnc(SCc3ccc(CCCNC(=N)N)c(C(=O)O)c3)n2-c2ccc(F)cc2)ccc1Cl [2-(3-{[amino(imino)methyl]amino}propyl)-5-({[5-{1-[4-chloro-3-(methyloxy)phenyl]-1-methylethyl}-1-(4-fluorophenyl)-1H-imidazol-2-yl]thio}methyl)benzoic acid] |
| 6.00 to 7.00 | 6.00 to 7.00 | COc1cc(-n2c(C(C)(C)c3ccc(Cl)c(Cl)c3)cnc2SCc2ccc(CCCNC(=N)N)c(C(=O)O)c2)ccc1F [2-(3-{[amino(imino)methyl]amino}propyl)-5-[({5-[1-(3,4-dichlorophenyl)-1-methylethyl]-1-[4-fluoro-3-(methyloxy)phenyl]-1H-imidazol-2-yl}thio)methyl]benzoic acid] |
| 6.00 to 7.00 | 6.00 to 7.00 | CCN(CC)CCS(=O)(=O)N1CCC(CSc2ncc(C(C)(C)c3ccc(Cl)c(Cl)c3)n2-c2ccc(F)cc2)CC1 [2-({4-[({5-[1-(3,4-dichlorophenyl)-1-methylethyl]-1-(4-fluorophenyl)-1H-imidazol-2-yl}thio)methyl]piperidin-1-yl}sulfonyl)-N,N-diethylethanamine] |
| > 7.00 | > 7.00 | CC(C)(c1ccc(Cl)c(Cl)c1)c1cnc(CCc2c(F)cc(C(=O)NCCS(=O)(=O)O)cc2Cl)n1-c1ccc(F)cc1 [2-({[3-chloro-4-(2-{5-[1-(3,4-dichlorophenyl)-1-methylethyl]-1-(4-fluorophenyl)-1H-imidazol-2-yl}ethyl)-5-fluorophenyl]carbonyl}amino)ethanesulfonic acid] |
| > 7.00 | > 7.00 | COc1cc(C(C)(C)c2cnc(SCc3c(F)cc(C(=O)NCCS(=O)(=O)O)cc3Cl)n2-c2ccc(F)cc2)ccc1Cl [2-({[3-chloro-4-({[5-{1-[4-chloro-3-(methyloxy)phenyl]-1-methylethyl}-1-(4-fluorophenyl)-1H-imidazol-2-yl]thio}methyl)-5-fluorophenyl]carbonyl}amino)ethanesulfonic acid] |
| > 7.00 | > 7.00 | COc1cc(C(C)(C)c2cnc(SCc3c(F)cc(S(=O)(=O)NCCS(=O)(=O)O)cc3Cl)n2-c2ccc(F)cc2)ccc1Cl [2-({[3-chloro-4-({[5-{1-[4-chloro-3-(methyloxy)phenyl]-1-methylethyl}-1-(4-fluorophenyl)-1H-imidazol-2-yl]thio}methyl)-5-fluorophenyl]sulfonyl}amino)ethanesulfonic acid] |
| > 7.00 | > 7.00 | COc1cc(C(C)(C)c2cnc(SCc3c(F)cc(C(=O)NCCS(=O)(=O)O)cc3F)n2-c2ccc(F)cc2)ccc1Cl [2-({[4-({[5-{1-[4-chloro-3-(methyloxy)phenyl]-1-methylethyl}-1-(4-fluorophenyl)-1H-imidazol-2-yl]thio}methyl)-3,5-difluorophenyl]carbonyl}amino) ethanesulfonic acid] |
| > 7.00 | > 7.00 | COc1cc(C(C)(C)c2cnc(SCc3c(F)cc(S(=O)(=O)NCCS(=O)(=O)O)cc3F)n2-c2ccc(F)cc2)ccc1Cl [2-({[4-({[5-{1-[4-chloro-3-(methyloxy)phenyl]-1-methylethyl}-1-(4-fluorophenyl)-1H-imidazol-2-yl]thio}methyl)-3,5-difluorophenyl]sulfonyl}amino)ethanesulfonic acid] |
| > 7.00 | > 7.00 | COc1cc(C(C)(C)c2cnc(SCc3ccc(C(=O)NCCS(=O)(=O)O)cc3F)n2-c2ccc(F)cc2)ccc1Cl [2-({[4-({[5-{1-[4-chloro-3-(methyloxy)phenyl]-1-methylethyl}-1-(4-fluorophenyl)-1H-imidazol-2-yl]thio}methyl)-3-fluorophenyl]carbonyl}amino)ethanesulfonic acid] |
| 6.00 to 7.00 | 6.00 to 7.00 | CC(C)(c1ccc(Cl)c(Cl)c1)c1cnc(CCc2c(F)cccc2Cl)n1-c1ccc(F)cc1 [2-[2-(2-chloro-6-fluorophenyl)ethyl]-5-[1-(3,4-dichlorophenyl)-1-methylethyl]-1-(4-fluorophenyl)-1H-imidazole] |
| > 7.00 | > 7.00 | COc1cc(C(C)(C)c2cnc(SCc3c(F)cc(C(C)(C)O)cc3Cl)n2-c2ccc(F)cc2)ccc1Cl [2-[3-chloro-4-({[5-{1-[4-chloro-3-(methyloxy)phenyl]-1-methylethyl}-1-(4-fluorophenyl)-1H-imidazol-2-yl]thio}methyl)-5-fluorophenyl]propan-2-ol] |
| > 7.00 | > 7.00 | CC(C)(c1ccc(Cl)c(Cl)c1)c1cnc(SCc2c(F)cc(C(=O)NCCS(=O)(=O)O)cc2F)n1-c1ccc(F)c(Cl)c1 [2-[({4-[({1-(3-chloro-4-fluorophenyl)-5-[1-(3,4-dichlorophenyl)-1-methylethyl]-1H-imidazol-2-yl}thio)methyl]-3,5-difluorophenyl}carbonyl)amino]ethanesulfonic acid] |
| 6.00 to 7.00 | > 7.00 | CC(C)(c1ccc(Cl)c(Cl)c1)c1cnc(SCc2ccc(C(=O)NCCS(=O)(=O)O)cc2F)n1-c1ccc(F)cc1 [2-[({4-[({5-[1-(3,4-dichlorophenyl)-1-methylethyl]-1-(4-fluorophenyl)-1H-imidazol-2-yl}thio)methyl]-3-fluorophenyl}carbonyl)amino]ethanesulfonic acid-sodium (1:1)] |
| > 7.00 | > 7.00 | COc1cc(-n2c(C(C)(C)c3ccc(Cl)c(Cl)c3)cnc2SCc2c(F)cc(C(=O)NCCS(=O)(=O)O)cc2F)ccc1F [2-[({4-[({5-[1-(3,4-dichlorophenyl)-1-methylethyl]-1-[4-fluoro-3-(methyloxy)phenyl]-1H-imidazol-2-yl}thio)methyl]-3,5-difluorophenyl}carbonyl)amino]ethanesulfonic acid] |
| 6.00 to 7.00 | 6.00 to 7.00 | COc1cc(-n2c(C(C)(C)c3ccc(S(N)(=O)=O)c(Cl)c3)cnc2SCc2ccc(Cl)c(-c3nnn[nH]3)c2)ccc1F [2-chloro-4-(1-{2-({[4-chloro-3-(1H-tetrazol-5-yl)phenyl]methyl}thio)-1-[4-fluoro-3-(methyloxy)phenyl]-1H-imidazol-5-yl}-1-methylethyl)benzenesulfonamide] |
